Target: T1, p53 Y220C (Homo sapiens, UniProt P04637, Y220C)
T1 construct: The recombinant protein was a truncation mutant containing only amino acids 94-312 of p53; made in house; host or cells: E. coli
Experiment: In vitro DNA binding activity assay (HTRF / TR-FRET): stabilization of p53 Y220C and increase of its DNA binding activity
Format: biochemical
Details: recombinant His-tagged p53 Y220C DNA binding domain (aa 94-312), biotin-labeled consensus DNA, incubated at 27° C. or 29° C. for 60 min
In short: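 His-tagged p53 Y220C, E. coli-expressed, binding biotin-labeled consensus DNA measured by HTRF (anti-His-APC, streptavidin-europium). Compounds from 4.5 mM DMSO stocks, 3-fold serial dilutions; incubations at room temperature 15 min, then 20 min. SC150 = concentration raising DNA binding by 50%.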

T1 sequence (P04637 94-312, change not shown): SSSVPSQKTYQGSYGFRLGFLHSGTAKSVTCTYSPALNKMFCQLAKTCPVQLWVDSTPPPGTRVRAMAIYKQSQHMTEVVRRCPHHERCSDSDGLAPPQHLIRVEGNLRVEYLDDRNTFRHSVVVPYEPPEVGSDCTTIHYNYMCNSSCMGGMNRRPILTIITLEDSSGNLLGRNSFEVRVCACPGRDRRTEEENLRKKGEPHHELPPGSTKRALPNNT

| SC150 (concentration of the compound required to increase the DNA binding activity by 50%) | SMILES |
| --- | --- |
| + (+ = 0 μM ≤ SC150 < 0.05 μM) | COc1cc(C(=O)O)ccc1NCC#Cc1cc2c(N[C@H]3CCN(CC(=O)N(C)C)C[C@H]3F)cccc2n1CC(F)(F)F [Compound 927A, 4-{[3-(4-{[(3R,4S)-1-[(dimethylcarbamoyl)methyl]-3-fluoropiperidin-4-yl]amino}-1-(2,2,2-trifluoroethyl)-1H-indol-2-yl)prop-2-yn-1-yl]amino}-3-methoxybenzoic acid] |
| + (+ = 0 μM ≤ SC150 < 0.05 μM) | COc1cc(C(=O)N[C@@H](CCC(=O)O)C(=O)O)ccc1NCC#Cc1cc2c(N[C@@H]3CCN(C)C[C@@H]3F)cccc2n1CC(F)(F)F [Compound 929A, (2S)-2-[(4-{[3-(4-{[(3S,4R)-3-fluoro-1-methylpiperidin-4-yl]amino}-1-(2,2,2-trifluoroethyl)-1H-indol-2-yl)prop-2-yn-1-yl]amino}-3-methoxyphenyl)formamido]pentanedioic acid] |
| + (+ = 0 μM ≤ SC150 < 0.05 μM) | COc1cc(C(=O)N[C@@H](CCC(N)=O)C(=O)O)ccc1NCC#Cc1cc2c(N[C@@H]3CCN(C)C[C@@H]3F)cccc2n1CC(F)(F)F [Compound 930A, (2S)-4-carbamoyl-2-[(4-{[3-(4-{[(3S,4R)-3-fluoro-1-methylpiperidin-4-yl]amino}-1-(2,2,2-trifluoroethyl)-1H-indol-2-yl)prop-2-yn-1-yl]amino}-3-methoxyphenyl)formamido]butanoic acid] |
| + (+ = 0 μM ≤ SC150 < 0.05 μM) | COc1cc(S(=O)(=O)O)ccc1NCC#Cc1cc2c(N[C@@H]3CCN(C)C[C@@H]3F)cccc2n1CC(F)(F)F [Compound 931A, 4-{[3-(4-{[(3S,4R)-3-fluoro-1-methylpiperidin-4-yl]amino}-1-(2,2,2-trifluoroethyl)-1H-indol-2-yl)prop-2-yn-1-yl]amino}-3-methoxybenzene-1-sulfonic acid] |
| + (+ = 0 μM ≤ SC150 < 0.05 μM) | COC(=O)CC[C@H](NC(=O)c1ccc(NCC#Cc2cc3c(N[C@@H]4CCN(C)C[C@@H]4F)cccc3n2CC(F)(F)F)c(OC)c1)C(=O)OC [Compound 932A, 1,5-dimethyl (2S)-2-[(4-{[3-(4-{[(3S,4R)-3-fluoro-1-methylpiperidin-4-yl]amino}-1-(2,2,2-trifluoroethyl)-1H-indol-2-yl)prop-2-yn-1-yl]amino}-3-methoxyphenyl)formamido]pentanedioate] |
| + (+ = 0 μM ≤ SC150 < 0.05 μM) | COc1cc(C(=O)N2CCC(N(C)C)CC2)ccc1NCC#Cc1cc2c(N[C@@H]3CCN(C)C[C@@H]3F)cccc2n1CC(F)(F)F [Compound 933A, 2-[3-({4-[4-(dimethylamino)piperidine-1-carbonyl]-2-methoxyphenyl}amino)prop-1-yn-1-yl]-N-[(3S,4R)-3-fluoro-1-methylpiperidin-4-yl]-1-(2,2,2-trifluoroethyl)-1H-indol-4-amine] |
| + (+ = 0 μM ≤ SC150 < 0.05 μM) | COc1cc(C(=O)O)ccc1NCC#Cc1cc2c(N[C@@H]3CCN(CC(=O)O)C[C@@H]3F)cccc2n1CC(F)(F)F [Compound 934A, 4-{[3-(4-{[(3S,4R)-1-(carboxymethyl)-3-fluoropiperidin-4-yl]amino}-1-(2,2,2-trifluoroethyl)-1H-indol-2-yl)prop-2-yn-1-yl]amino}-3-methoxybenzoic acid] |
| + (+ = 0 μM ≤ SC150 < 0.05 μM) | CCS(=O)(=O)c1ccc(NCC#Cc2cc3c(N[C@@H]4CCNC[C@@H]4F)cccc3n2CC(F)(F)F)c(OC)c1 [Compound 935A, 2-(3-{[4-(ethanesulfonyl)-2-methoxyphenyl]amino}prop-1-yn-1-yl)-N-[(3S,4R)-3-fluoropiperidin-4-yl]-1-(2,2,2-trifluoroethyl)-1H-indol-4-amine] |
| + (+ = 0 μM ≤ SC150 < 0.05 μM) | COc1cc(S(C)(=O)=O)ccc1NCC#Cc1cc2c(N[C@@H]3CC[C@H](N)C[C@H]3F)cccc2n1CC(F)(F)F [Compound 936A] |
| + (+ = 0 μM ≤ SC150 < 0.05 μM) | CN[C@H]1CC[C@@H](Nc2cccc3c2cc(C#CCNc2ccc(S(C)(=O)=O)cc2OC)n3CC(F)(F)F)[C@H](F)C1 [Compound 937A] |
| + (+ = 0 μM ≤ SC150 < 0.05 μM) | COc1cc(S(C)(=O)=O)ccc1NCC#Cc1cc2c(N[C@@H]3CC[C@H](N(C)C)C[C@H]3F)cccc2n1CC(F)(F)F [Compound 938A] |
| + (+ = 0 μM ≤ SC150 < 0.05 μM) | COc1cc(S(=O)(=O)CCO)ccc1NCC#Cc1cc2c(N[C@@H]3CCN(C)C[C@@H]3F)cccc2n1CC(F)(F)F [Compound 939A, 2-(4-{[3-(4-{[(3S,4R)-3-fluoro-1-methylpiperidin-4-yl]amino}-1-(2,2,2-trifluoroethyl)-1H-indol-2-yl)prop-2-yn-1-yl]amino}-3-methoxybenzenesulfonyl)ethan-1-ol] |
| + (+ = 0 μM ≤ SC150 < 0.05 μM) | CCNC(=O)c1ccc(NCC#Cc2cc3c(N[C@@H]4CCN(C)C[C@@H]4F)cccc3n2CC(F)(F)F)c(OC)c1 [Compound 940A, N-ethyl-4-{[3-(4-{[(3S,4R)-3-fluoro-1-methylpiperidin-4-yl]amino}-1-(2,2,2-trifluoroethyl)-1H-indol-2-yl)prop-2-yn-1-yl]amino}-3-methoxybenzamide] |
| + (+ = 0 μM ≤ SC150 < 0.05 μM) | CCOc1cc(S(C)(=O)=O)ccc1NCC#Cc1cc2c(N[C@@H]3CCNC[C@@H]3F)cccc2n1CC(F)(F)F [Compound 941A, 2-{3-[(2-ethoxy-4-methanesulfonylphenyl)amino]prop-1-yn-1-yl}-N-[(3S,4R)-3-fluoropiperidin-4-yl]-1-(2,2,2-trifluoroethyl)-1H-indol-4-amine] |

The remaining lines, values behind:

| SMILES | SC150 (concentration of the compound required to increase the DNA binding activity by 50%) |
| --- | --- |
| COC(=O)c1ccc(NCC#Cc2cc3c(N[C@@H]4CCN(CC(=O)N(C)C)C[C@@H]4F)cccc3n2CC(F)(F)F)c(OC)c1 [Compound 913A, methyl 4-{[3-(4-{[(3S,4R)-1-[(dimethylcarbamoyl)methyl]-3-fluoropiperidin-4-yl]amino}-1-(2,2,2-trifluoroethyl)-1H-indol-2-yl)prop-2-yn-1-yl]amino}-3-methoxybenzoate] | + (+ = 0 μM ≤ SC150 < 0.05 μM) |
| COC(=O)c1ccc(NCC#Cc2cc3c(N[C@H]4CCN(CC(=O)N(C)C)C[C@H]4F)cccc3n2CC(F)(F)F)c(OC)c1 [Compound 914A, methyl 4-{[3-(4-{[(3R,4S)-1-[(dimethylcarbamoyl)methyl]-3-fluoropiperidin-4-yl]amino}-1-(2,2,2-trifluoroethyl)-1H-indol-2-yl)prop-2-yn-1-yl]amino}-3-methoxybenzoate] | + (+ = 0 μM ≤ SC150 < 0.05 μM) |
| COC(=O)c1ccc(NCC#Cc2cc3c(N[C@H]4CCN(CC(N)=O)C[C@H]4F)cccc3n2CC(F)(F)F)c(OC)c1 [Compound 915A, methyl 4-{[3-(4-{[(3R,4S)-1-(carbamoylmethyl)-3-fluoropiperidin-4-yl]amino}-1-(2,2,2-trifluoroethyl)-1H-indol-2-yl)prop-2-yn-1-yl]amino}-3-methoxybenzoate] | + (+ = 0 μM ≤ SC150 < 0.05 μM) |
| COc1cc(C(=O)Nc2nccs2)ccc1NCC#Cc1cc2c(N[C@@H]3CCN(C)C[C@@H]3F)cccc2n1CC(F)(F)F [Compound 917A] | + (+ = 0 μM ≤ SC150 < 0.05 μM) |
| COc1cc(C(=O)N2CCC(O)CC2)ccc1NCC#Cc1cc2c(N[C@@H]3CCN(C)C[C@@H]3F)cccc2n1CC(F)(F)F [Compound 919A] | + (+ = 0 μM ≤ SC150 < 0.05 μM) |
| COc1cc(C(=O)O)ccc1NCC#Cc1cc2c(N[C@@H]3CCN(CC(=O)N(C)C)C[C@@H]3F)cccc2n1CC(F)(F)F [Compound 920A, 4-{[3-(4-{[(3S,4R)-1-[(dimethylcarbamoyl)methyl]-3-fluoropiperidin-4-yl]amino}-1-(2,2,2-trifluoroethyl)-1H-indol-2-yl)prop-2-yn-1-yl]amino}-3-methoxybenzoic acid] | + (+ = 0 μM ≤ SC150 < 0.05 μM) |
| CCS(=O)(=O)c1ccc(NCC#Cc2cc3c(N[C@@H]4CCN(C(=O)OC(C)(C)C)C[C@@H]4F)cccc3n2CC(F)(F)F)c(OC)c1 [Compound 922A, tert-butyl (3S,4R)-4-{[2-(3-{[4-(ethanesulfonyl)-2-methoxyphenyl]amino}prop-1-yn-1-yl)-1-(2,2,2-trifluoroethyl)-1H-indol-4-yl]amino}-3-fluoropiperidine-1-carboxylate] | ++ (++ = 0.05 μM ≤ SC150 < 0.1 μM) |
| COc1cc(C(=O)NCCN2CCOCC2)ccc1NCC#Cc1cc2c(N[C@@H]3CCN(C)C[C@@H]3F)cccc2n1CC(F)(F)F [Compound 924A, 4-{[3-(4-{[(3S,4R)-3-fluoro-1-methylpiperidin-4-yl]amino}-1-(2,2,2-trifluoroethyl)-1H-indol-2-yl)prop-2-yn-1-yl]amino}-3-methoxy-N-[2-(morpholin-4-yl)ethyl]benzamide] | + (+ = 0 μM ≤ SC150 < 0.05 μM) |
| COc1cc(C(=O)O)ccc1NCC#Cc1cc2c(N[C@H]3CCN(CC(N)=O)C[C@H]3F)cccc2n1CC(F)(F)F [Compound 925A] | + (+ = 0 μM ≤ SC150 < 0.05 μM) |
| COc1cc(C(=O)O)ccc1NCC#Cc1cc2c(N[C@@H]3CCN(CC(N)=O)C[C@@H]3F)cccc2n1CC(F)(F)F [Compound 926A] | + (+ = 0 μM ≤ SC150 < 0.05 μM) |

Source: patent US12428406B2 (PMV Pharmaceuticals, Inc., priority 2019, dated 2025)
